These results are taken from publication PMC13439108, “An antibody–drug conjugate active against antibiotic-resistant Neisseria gonorrhoeae” (Proceedings of the National Academy of Sciences of the …, 2026).

The structures appear in SMILES notation. Converted amounts (≈) assume the structure as drawn. Where a SMILES comes first, the peptide text is derived from it. [ ]: non-standard residue; d: D form. The star is where a group is joined. d(aIle) = CC[C@H](C)[C@@H](N)C(=O)O; dDab = NCC[C@@H](N)C(=O)O; Octanoyl = CCCCCCCC(=O)*; Dab = NCC[C@H](N)C(=O)O; AEEA = NCCOCCOCC(=O)O

The subject of data set [1] is N. gonorrhoeae FA1090ΔIgAP. As to conditions: microdilution in FB, ~5 × 10^4 CFU, 24 hr, 37°C, 5% CO2. Here is the method: (§1) columns (ThermoFisher scientific). Activated mAb was added to 0.9 mg of Oct-TriA1 analogues (synthesised by ISCA Biochemicals, UK) and incubated at room temperature for 60 min. ADCs were dialysed using slide-A-Lyzer cassette (20K MWCO, ThermoFisher scientific) into PBS overnight at 4 °C […]
(§2) MALDI-TOF MS analysis for determination of intact mass mAbs or ADCs with a concentration of 1 mg/mL were acidified with 1% trifluoroacetic acid and mixed with Super DHB matrix, 1 μl was spotted onto an MTP Anchorchip 600/384. For every mAb, three sample spots were prepared from the same solution using three protocols advised by the manufacturer. MALDI-TOF measurements were performed on a Microflex LRF mass spectrometer, equipped with a 60Hz nitrogen laser at 337nm. Number of peptides conjugated was calculated using the MALDI-TOF molecular weights (MW) [MW = M+] of each ADC, the unconjugated antibody (mAb), and the molecular weights of Oct-TriA1 analogues using the following equation.
(§3) Number of peptides = MW ADC − MW mAb […]
(§4) Determination of Oct-TriA1 Minimum Inhibitory Concentration (MIC)
(§5) N. gonorrhoeae was resuspended in PBS to an ODA600 1.0, and ̴5 × 10^4 CFU added to wells of a microdilution plate containing dilutions of antimicrobials in FB. Plates were incubated for 24 hr at […]
(§6) 37°C, in 5% CO2 then 10 μl aliquots plated onto GCB agar. The MIC was defined as the lowest concentration of an antimicrobial that prevented bacterial growth. […]
(§7) Peptide concentration in ADC preparations
(§8) Peptide concentrations for ADCs were calculated from the antibody concentration, the drug-to-antibody ratio (DAR), and the peptide molecular weight using the following formula:
(§9) Conc. peptide (µg/mL) = Conc. ADC (µg/mL) × DAR x MWpeptide (Da) […]
(§10) Where Conc. ADC is the ADC/ mAb concentration, MWADC is the mAb molecular weight (150 kDa), MWpeptide is the peptide molecular weight and DAR is the average number of peptides per conjugate.
(§11) This formula was used to convert ADC concentrations to peptide concentrations for all assays. […]
(In broth dilution the organism is exposed to a series of concentrations in liquid medium.)

Data set [2] concerns N. gonorrhoeae FA1090ΔmtrE. The conditions noted are these: microdilution in FB, ~5 × 10^4 CFU, 24 hr, 37°C, 5% CO2. The protocol: as §1, §2, §3, §4, §5, §6, §7, §8, §9, §10, §11
A further data set deals with N. gonorrhoeae MS11. The conditions noted are these: microdilution in FB, ~5 × 10^4 CFU, 24 hr, 37°C, 5% CO2. The protocol: as §1, §2, §3, §4, §5, §6, §7, §8, §9, §10, §11
A further data set deals with N. gonorrhoeae MS11ΔIgAP. As to conditions: microdilution in FB, ~5 × 10^4 CFU, 24 hr, 37°C, 5% CO2. Here is the method: as §1, §2, §3, §4, §5, §6, §7, §8, §9, §10, §11
The next data set deals with N. gonorrhoeae MS11ΔmtrE. The conditions noted are these: microdilution in FB, ~5 × 10^4 CFU, 24 hr, 37°C, 5% CO2. The protocol: as §1, §2, §3, §4, §5, §6, §7, §8, §9, §10, §11
The next data set deals with N. gonorrhoeae WHO F. As to conditions: microdilution in FB, ~5 × 10^4 CFU, 24 hr, 37°C, 5% CO2, lowest concentration preventing growth. Here is the method:
as §1, §2, §3, §4, §5, §6, §7, §8, §9, §10, §11

A further data set concerns N. gonorrhoeae WHO G. The conditions noted are these: microdilution in FB, ~5 × 10^4 CFU, 24 hr, 37°C, 5% CO2. Here is the method: as §1, §2, §3, §4, §5, §6, §7, §8, §9, §10, §11
Another data set concerns N. gonorrhoeae WHO K. The conditions noted are these: microdilution in FB, ~5 × 10^4 CFU, 24 hr, 37°C, 5% CO2. The protocol: as §1, §2, §3, §4, §5, §6, §7, §8, §9, §10, §11
The next data set has as its system N. gonorrhoeae WHO L. As to conditions: microdilution in FB, ~5 × 10^4 CFU, 24 hr, 37°C, 5% CO2. Here is the method: as §1, §2, §3, §4, §5, §6, §7, §8, §9, §10, §11
The subject of another data set is N. gonorrhoeae WHO N. As to conditions: microdilution in FB, ~5 × 10^4 CFU, 24 hr, 37°C, 5% CO2. Here is the method:
as §1, §2, §3, §4, §5, §6, §7, §8, §9, §10, §11

The next data set concerns N. gonorrhoeae WHO O. The conditions noted are these: microdilution in FB, ~5 × 10^4 CFU, 24 hr, 37°C, 5% CO2. The protocol: as §1, §2, §3, §4, §5, §6, §7, §8, §9, §10, §11
A further data set deals with N. gonorrhoeae WHO P. The conditions noted are these: microdilution in FB, ~5 × 10^4 CFU, 24 hr, 37°C, 5% CO2. Here is the method:
as §1, §2, §3, §4, §5, §6, §7, §8, §9, §10, §11

The subject of a further data set is HK-2 cells. The experiment in a line: LDH release cytotoxicity. It counts as cell-based, human. As to conditions: n = 3. The protocol: HK-2 cells (CRL-2190™, Americab Type Culutre Collection (ATCC)), a proximal renal tubule cell(7), and End1/E6E7 (CRL-2615™, ATCC) upper cervical epithelial cells(8) were cultured in Keratinocyte Serum Free Medium (Invitrogen, Life Technologies Ltd.) with human recombinant EGF (5 ng ml-1) and bovine pituitary extract (0.05 mg ml−1) at 37°C in 5% CO2. Cells were seeded in 96-well plates (Corning, Polystyrene) at a density of 2 × 10^4 cells/well 24 hr prior; Triton-X-100 (0.1%) and Digitonin (30 μg ml−1) were used as controls. Lactate dehydrogenase (LDH) release was measured using the Biovision kit; the OD490 was assessed in a SpectraMax M5 plate reader. […]
A general note: Release of lactate dehydrogenase indicates damage to the cell membrane.

With `CCCCCCCC(=O)N[C@@H](C(=O)N[C@H](CCN)C(=O)NCC(=O)N[C@H](CO)C(=O)N[C@H](Cc1c[nH]c2ccccc12)C(=O)N[C@@H](CO)C(=O)N[C@@H](CCN)C(=O)N[C@H](CCN)C(=O)N[C@@H](Cc1ccccc1)C(=O)N[C@@H](CCC(=O)O)C(=O)N[C@H](C(=O)N[C@@H](C(=O)N[C@@H](C)C(=O)NCCOCCOCC(=O)N[C@@H](CC(C)C)C(=O)N1CCC[C@H]1C(=O)N[C@@H](CCCNC(=N)N)C(=O)N1CCC[C@H]1C(=O)N1CCC[C@H]1C(=O)O)[C@@H](C)CC)C(C)C)C(C)C` [Oct-TriA1-c] (Octanoyl-[dV][dDab]G[dS][dW]S[Dab][dDab]FEV[d(aIle)]A[AEEA]LPRPP-OH), the MIC in data set [1] stood at 0.78 µg/mL (≈ 0.35 µM); in data set [2] it was 0.78 µg/mL (≈ 0.35 µM); against N. gonorrhoeae MS11, 3.13 µg/mL (≈ 1.41 µM); in the data set on N. gonorrhoeae MS11ΔIgAP it was 6.25 µg/mL (≈ 2.81 µM); against N. gonorrhoeae MS11ΔmtrE, 1.56 µg/mL (≈ 0.701 µM); with N. gonorrhoeae WHO F, 1.56 µg/mL (≈ 0.701 µM). In addition, the MIC is 3.13 µg/mL (≈ 1.41 µM) in the data set with N. gonorrhoeae WHO G; 3.13 µg/mL (≈ 1.41 µM) against N. gonorrhoeae WHO K; 1.56 µg/mL (≈ 0.701 µM) in the data set with N. gonorrhoeae WHO L; 3.13 µg/mL (≈ 1.41 µM) with N. gonorrhoeae WHO N; 3.13 µg/mL (≈ 1.41 µM) against N. gonorrhoeae WHO O; 3.13 µg/mL (≈ 1.41 µM) in the data set with N. gonorrhoeae WHO P. Also, the “LDH (EC50) 4 h” value in the data set with HK-2 cells (2 × 10^4 cells/well, LDH release OD490, 4 h) amounted to 86.42 µg/mL. The “LDH (EC50) 24 h” value with HK-2 cells (LDH release OD490, 24 h) is 57.71 µg/mL. Further, the “LDH (EC50) 48 h” value in the data set with HK-2 cells (LDH release OD490, 48 h) was 50.03 µg/mL.

As usually defined, the MIC is the smallest concentration in the dilution series that meets the test's criterion for growth inhibition.
